According to ChEMBL document CHEMBL4000195, “Design and synthesis of novel 7-aminosubstituted pyrido[2,3-b]pyrazines exhibiting anti-breast cancer activity” (Eur J Med Chem, 2017):
Activity calls are given as the source filed them. The calls are words filed in the database; no cut-off is given here.

Legend:
[1] = tested on: MDA-MB-231; test: Cytotoxicity against human MDA-MB-231 cells at 5 uM by MTT assay; format: functional
[2] = tested on: HCC1954; test: Cytotoxicity against human HCC1954 cells at 5 uM by MTT assay; format: functional
[3] = tested on: T47D; test: Cytotoxicity against human T47D cells at 5 uM by MTT assay; format: functional
[4] = tested on: MCF7; test: Cytotoxicity against human MCF7 cells at 10 uM by MTT assay; format: functional
[5] = tested on: MDA-MB-231; test: Cytotoxicity against human MDA-MB-231 cells at 10 uM by MTT assay; format: functional
[6] = tested on: HCC1954; test: Cytotoxicity against human HCC1954 cells at 10 uM by MTT assay; format: functional
[7] = tested on: T47D; test: Cytotoxicity against human T47D cells at 10 uM by MTT assay; format: functional
[8] = tested on: MCF7; test: Cytotoxicity against human MCF7 cells at 5 uM by MTT assay; format: functional
[9] = tested on: HCC1954; test: Cytotoxicity against human HCC1954 cells by MTT assay; format: functional, cell-based
[10] = target: Phosphatidylinositol 4,5-bisphosphate 3-kinase catalytic subunit alpha isoform (Homo sapiens, UniProt P42336); test: Inhibition of PI3Kalpha catalytic domain (unknown origin) using PIP2 liposomes as substrate in presence of biotin-labeled PIP3 and GST-GRP1-PH by streptavidin-HRP based assays
[11] = target: T1, Serine/threonine-protein kinase haspin (Homo sapiens) (UniProt Q8TF76); test: Inhibition of human HASPIN
T1 sequence (whole entry): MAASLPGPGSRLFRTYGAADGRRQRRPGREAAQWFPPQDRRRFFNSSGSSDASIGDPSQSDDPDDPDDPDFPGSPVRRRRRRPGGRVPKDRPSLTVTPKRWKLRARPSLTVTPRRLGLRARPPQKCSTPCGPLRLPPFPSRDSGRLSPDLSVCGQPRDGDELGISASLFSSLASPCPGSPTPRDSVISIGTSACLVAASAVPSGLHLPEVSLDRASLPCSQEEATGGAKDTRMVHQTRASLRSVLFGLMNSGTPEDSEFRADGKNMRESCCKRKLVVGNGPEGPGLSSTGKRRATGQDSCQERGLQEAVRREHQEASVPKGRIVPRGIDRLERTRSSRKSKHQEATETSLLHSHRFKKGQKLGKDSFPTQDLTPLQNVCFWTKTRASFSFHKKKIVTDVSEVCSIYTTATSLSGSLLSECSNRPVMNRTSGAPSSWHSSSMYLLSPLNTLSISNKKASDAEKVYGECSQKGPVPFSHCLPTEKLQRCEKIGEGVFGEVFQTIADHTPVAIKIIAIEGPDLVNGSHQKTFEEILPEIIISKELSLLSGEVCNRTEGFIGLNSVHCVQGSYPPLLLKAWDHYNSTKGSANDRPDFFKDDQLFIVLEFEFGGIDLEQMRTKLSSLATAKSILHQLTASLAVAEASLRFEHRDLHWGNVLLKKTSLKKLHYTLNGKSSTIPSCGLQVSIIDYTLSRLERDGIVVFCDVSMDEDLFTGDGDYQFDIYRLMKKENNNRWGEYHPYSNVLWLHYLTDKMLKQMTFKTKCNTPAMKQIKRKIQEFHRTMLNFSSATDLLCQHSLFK

[12] = target: Cyclin-dependent kinase 5/CDK5 activator 1 (Homo sapiens) (UniProt Q00535+Q15078); test: Inhibition of human CDK5/p25 using histone H1 as substrate in presence of [gamma33P]ATP after 30 mins by scintillation counting method; format: protein-complex assay
Sequence of Cyclin-dependent kinase 5/CDK5 activator 1 (Homo sapiens) (Q00535 whole entry): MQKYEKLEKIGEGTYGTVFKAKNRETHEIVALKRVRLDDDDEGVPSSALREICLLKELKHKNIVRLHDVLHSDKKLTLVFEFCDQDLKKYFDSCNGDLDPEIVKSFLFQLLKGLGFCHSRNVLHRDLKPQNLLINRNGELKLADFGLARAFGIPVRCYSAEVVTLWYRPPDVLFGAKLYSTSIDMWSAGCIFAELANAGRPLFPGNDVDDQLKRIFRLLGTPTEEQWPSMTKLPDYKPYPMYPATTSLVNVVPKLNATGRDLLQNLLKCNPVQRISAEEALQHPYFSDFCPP
Sequence of Cyclin-dependent kinase 5/CDK5 activator 1 (Homo sapiens) (Q15078 99-307 partner limits assumed): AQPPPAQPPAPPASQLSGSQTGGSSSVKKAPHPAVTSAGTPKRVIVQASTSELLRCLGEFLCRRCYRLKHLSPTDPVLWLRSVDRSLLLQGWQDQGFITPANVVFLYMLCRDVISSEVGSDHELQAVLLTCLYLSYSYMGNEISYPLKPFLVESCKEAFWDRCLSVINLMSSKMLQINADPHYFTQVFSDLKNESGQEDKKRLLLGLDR

[13] = tested on: T47D; test: Cytotoxicity against human T47D cells by MTT assay; format: functional, cell-based
[14] = target: Receptor-type tyrosine-protein kinase FLT3 (Homo sapiens) (UniProt P36888); test: Inhibition of recombinant human GST-tagged FLT3 (571 to 993 residues) transphosphorylation activity expressed in baculovirus infected Sf9 cells using poly[Glu:Tyr] (4:1) as substrate after 60 mins
Sequence of Receptor-type tyrosine-protein kinase FLT3 (Homo sapiens) (P36888 whole entry, the tested form may be a part): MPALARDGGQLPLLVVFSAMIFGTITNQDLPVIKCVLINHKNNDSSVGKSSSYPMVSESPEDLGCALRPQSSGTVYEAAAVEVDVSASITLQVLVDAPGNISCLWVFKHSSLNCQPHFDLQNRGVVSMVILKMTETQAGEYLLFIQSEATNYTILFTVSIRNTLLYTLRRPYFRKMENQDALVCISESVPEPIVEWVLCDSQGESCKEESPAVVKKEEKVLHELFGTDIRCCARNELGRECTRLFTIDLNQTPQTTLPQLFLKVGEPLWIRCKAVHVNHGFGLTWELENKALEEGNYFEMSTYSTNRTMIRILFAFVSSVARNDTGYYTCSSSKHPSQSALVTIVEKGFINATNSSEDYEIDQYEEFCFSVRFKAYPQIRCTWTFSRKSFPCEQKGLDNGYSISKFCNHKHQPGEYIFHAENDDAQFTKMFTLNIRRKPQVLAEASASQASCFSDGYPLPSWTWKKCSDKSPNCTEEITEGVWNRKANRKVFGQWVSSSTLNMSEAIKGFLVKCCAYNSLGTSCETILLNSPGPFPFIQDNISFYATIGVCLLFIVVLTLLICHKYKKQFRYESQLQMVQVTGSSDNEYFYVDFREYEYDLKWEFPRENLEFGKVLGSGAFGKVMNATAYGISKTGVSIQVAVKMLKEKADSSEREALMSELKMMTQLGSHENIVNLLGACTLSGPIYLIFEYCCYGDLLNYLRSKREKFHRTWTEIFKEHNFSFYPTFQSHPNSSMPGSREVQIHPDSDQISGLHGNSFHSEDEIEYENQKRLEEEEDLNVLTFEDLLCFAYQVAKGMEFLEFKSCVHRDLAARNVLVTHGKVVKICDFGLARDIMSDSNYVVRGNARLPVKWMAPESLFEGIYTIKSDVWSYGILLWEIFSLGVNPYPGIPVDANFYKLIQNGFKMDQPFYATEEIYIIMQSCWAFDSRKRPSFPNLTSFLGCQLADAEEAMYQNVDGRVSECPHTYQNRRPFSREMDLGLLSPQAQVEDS

[15] = target: Mast/stem cell growth factor receptor Kit (Homo sapiens) (UniProt P10721); test: Inhibition of recombinant human GST-tagged KIT (544-end residues) transphosphorylation activity expressed in baculovirus infected Sf9 cells using poly[Glu:Tyr] (4:1) as substrate after 60 mins
Sequence of Mast/stem cell growth factor receptor Kit (Homo sapiens) (P10721 whole entry): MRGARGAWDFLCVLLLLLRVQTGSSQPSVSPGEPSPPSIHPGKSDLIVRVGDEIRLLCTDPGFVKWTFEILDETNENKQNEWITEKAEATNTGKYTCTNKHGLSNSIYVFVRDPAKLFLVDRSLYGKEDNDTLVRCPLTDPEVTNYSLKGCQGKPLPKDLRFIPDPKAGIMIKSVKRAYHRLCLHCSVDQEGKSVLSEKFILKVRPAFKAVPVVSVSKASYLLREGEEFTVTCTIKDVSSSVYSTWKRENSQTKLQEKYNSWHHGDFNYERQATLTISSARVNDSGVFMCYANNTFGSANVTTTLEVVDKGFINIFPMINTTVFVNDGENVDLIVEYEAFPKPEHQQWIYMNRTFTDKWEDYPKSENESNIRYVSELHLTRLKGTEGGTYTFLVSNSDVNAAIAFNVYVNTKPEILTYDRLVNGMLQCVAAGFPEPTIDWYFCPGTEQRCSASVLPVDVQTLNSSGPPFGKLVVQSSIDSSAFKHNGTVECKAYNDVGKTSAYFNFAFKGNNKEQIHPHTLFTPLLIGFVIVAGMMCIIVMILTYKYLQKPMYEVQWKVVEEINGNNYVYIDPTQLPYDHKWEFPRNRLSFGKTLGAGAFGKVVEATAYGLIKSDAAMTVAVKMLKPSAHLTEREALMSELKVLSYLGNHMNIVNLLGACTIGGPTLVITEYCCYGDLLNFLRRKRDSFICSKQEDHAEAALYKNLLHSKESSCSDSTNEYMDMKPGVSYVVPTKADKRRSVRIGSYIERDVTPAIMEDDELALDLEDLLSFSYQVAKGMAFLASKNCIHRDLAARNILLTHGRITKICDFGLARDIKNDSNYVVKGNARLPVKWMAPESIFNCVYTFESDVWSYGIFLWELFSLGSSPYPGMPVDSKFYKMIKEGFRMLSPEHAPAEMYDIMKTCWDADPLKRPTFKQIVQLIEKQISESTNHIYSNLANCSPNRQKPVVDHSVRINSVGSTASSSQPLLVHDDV

[16] = tested on: MCF7; test: Cytotoxicity against human MCF7 cells by MTT assay; format: functional, cell-based
[17] = target: Aurora kinase B/Inner centromere protein (Homo sapiens) (UniProt Q96GD4+Q9NQS7); test: Inhibition of human AURKB/INCENP; format: protein-complex assay
[18] = target: Glycogen synthase kinase-3 (Sus scrofa) (UniProt B2LUN4+I6LNT8); test: Inhibition of pig GSK3alpha/beta using GS-1 as substrate in presence of [gamma33P]ATP after 30 mins by scintillation counting method
[19] = target: Platelet-derived growth factor receptor beta (Homo sapiens) (UniProt P09619); test: Inhibition of recombinant human GST-tagged PDGFR-beta (557-end residues) transphosphorylation activity expressed in baculovirus infected Sf9 cells using poly[Glu:Tyr] (4:1) as substrate after 60 mins
Sequence of Platelet-derived growth factor receptor beta (Homo sapiens) (P09619 whole entry): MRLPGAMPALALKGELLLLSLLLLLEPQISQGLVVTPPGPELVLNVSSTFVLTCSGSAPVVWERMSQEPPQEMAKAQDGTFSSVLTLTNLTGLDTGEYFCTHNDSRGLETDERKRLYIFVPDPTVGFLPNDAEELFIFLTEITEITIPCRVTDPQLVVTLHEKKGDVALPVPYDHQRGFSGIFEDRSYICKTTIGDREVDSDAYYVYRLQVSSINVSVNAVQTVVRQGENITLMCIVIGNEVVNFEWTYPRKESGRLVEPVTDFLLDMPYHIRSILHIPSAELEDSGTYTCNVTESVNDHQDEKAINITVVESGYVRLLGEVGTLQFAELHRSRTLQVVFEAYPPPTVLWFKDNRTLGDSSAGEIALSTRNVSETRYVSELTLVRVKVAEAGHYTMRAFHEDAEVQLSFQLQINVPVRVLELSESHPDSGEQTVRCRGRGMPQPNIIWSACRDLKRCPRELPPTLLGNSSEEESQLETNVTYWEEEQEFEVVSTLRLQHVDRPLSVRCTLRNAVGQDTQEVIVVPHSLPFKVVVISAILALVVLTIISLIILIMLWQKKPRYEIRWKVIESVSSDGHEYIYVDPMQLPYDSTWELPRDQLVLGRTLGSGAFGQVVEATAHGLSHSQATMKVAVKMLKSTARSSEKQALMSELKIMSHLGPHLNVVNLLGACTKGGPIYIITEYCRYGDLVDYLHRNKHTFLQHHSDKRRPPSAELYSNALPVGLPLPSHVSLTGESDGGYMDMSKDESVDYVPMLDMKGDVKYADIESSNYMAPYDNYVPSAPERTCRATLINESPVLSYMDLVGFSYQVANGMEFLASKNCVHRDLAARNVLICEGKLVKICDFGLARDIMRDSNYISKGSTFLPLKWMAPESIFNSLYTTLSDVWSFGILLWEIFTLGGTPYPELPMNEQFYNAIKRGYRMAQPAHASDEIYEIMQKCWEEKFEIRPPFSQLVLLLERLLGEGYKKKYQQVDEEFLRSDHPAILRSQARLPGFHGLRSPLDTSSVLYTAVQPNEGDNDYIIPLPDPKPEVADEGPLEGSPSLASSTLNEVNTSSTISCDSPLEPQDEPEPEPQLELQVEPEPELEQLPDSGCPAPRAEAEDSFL

[20] = tested on: MDA-MB-231; test: Cytotoxicity against human MDA-MB-231 cells by MTT assay; format: functional, cell-based
[21] = species on record: Sus scrofa; test: Inhibition of pig CK1delta/epsilon
[22] = target: Dual specificity tyrosine-phosphorylation-regulated kinase 1A (Rattus norvegicus) (UniProt Q63470); test: Inhibition of rat DYRK1A using myelin basic protein as substrate in presence of [gamma33P]ATP after 30 mins by scintillation counting method
[23] = target: Vascular endothelial growth factor receptor 2 (Homo sapiens) (UniProt P35968); test: Inhibition of recombinant human GST-tagged VEGFR-2 (789-end residues) transphosphorylation activity expressed in baculovirus infected Sf9 cells using poly[Glu:Tyr] (4:1) as substrate after 60 mins
[24] = tested on: SK-BR-3; test: Cytotoxicity against human SKBR3 cells by MTT assay; format: functional, cell-based
[25] = target: Dual specificity protein kinase CLK1 (Mus musculus) (UniProt P22518); test: Inhibition of mouse CLK1
Sequence of Dual specificity protein kinase CLK1 (Mus musculus) (P22518 whole entry, looked up): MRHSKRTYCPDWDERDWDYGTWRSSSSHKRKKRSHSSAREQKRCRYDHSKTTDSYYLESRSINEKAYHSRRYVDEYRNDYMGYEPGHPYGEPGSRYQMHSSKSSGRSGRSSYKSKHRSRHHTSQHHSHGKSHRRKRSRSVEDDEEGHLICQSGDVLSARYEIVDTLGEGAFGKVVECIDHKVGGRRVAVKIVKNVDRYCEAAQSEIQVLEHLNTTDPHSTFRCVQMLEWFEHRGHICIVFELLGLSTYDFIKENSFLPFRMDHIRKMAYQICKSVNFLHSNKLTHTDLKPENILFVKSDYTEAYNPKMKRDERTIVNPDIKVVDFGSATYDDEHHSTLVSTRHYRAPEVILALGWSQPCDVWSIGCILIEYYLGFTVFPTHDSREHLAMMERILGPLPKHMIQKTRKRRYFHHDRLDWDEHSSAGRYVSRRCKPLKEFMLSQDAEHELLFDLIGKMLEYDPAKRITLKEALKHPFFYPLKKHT

[26] = target: Receptor-interacting serine/threonine-protein kinase 3 (Homo sapiens) (UniProt Q9Y572); test: Inhibition of human RIPK3
Sequence of Receptor-interacting serine/threonine-protein kinase 3 (Homo sapiens) (Q9Y572 whole entry, looked up): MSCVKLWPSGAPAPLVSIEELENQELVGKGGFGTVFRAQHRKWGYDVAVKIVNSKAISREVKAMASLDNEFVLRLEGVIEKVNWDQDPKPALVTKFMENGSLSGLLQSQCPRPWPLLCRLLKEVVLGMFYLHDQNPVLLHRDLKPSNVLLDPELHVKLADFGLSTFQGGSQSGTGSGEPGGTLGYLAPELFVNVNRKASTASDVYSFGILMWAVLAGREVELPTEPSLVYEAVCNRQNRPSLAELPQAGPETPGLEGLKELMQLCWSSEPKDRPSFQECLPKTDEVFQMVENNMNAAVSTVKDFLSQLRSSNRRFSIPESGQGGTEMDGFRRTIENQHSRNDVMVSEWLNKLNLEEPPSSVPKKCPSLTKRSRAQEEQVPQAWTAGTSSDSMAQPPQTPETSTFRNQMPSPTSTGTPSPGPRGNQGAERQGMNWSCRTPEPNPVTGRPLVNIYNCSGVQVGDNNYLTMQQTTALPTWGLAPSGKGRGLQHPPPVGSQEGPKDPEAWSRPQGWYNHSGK

SMILES | Activity [1] [%] | Activity [2] [%] | Activity [3] [%] | Activity [4] [%] | Activity [5] [%] | Activity [6] [%] | Activity [7] [%] | Activity [8] [%] | other results
Cc1nc2nc(Sc3ccccc3)cnc2cc1NC(=O)Nc1cccc(C(F)(F)F)c1 | <50 | <50 | <50 | <50 | <50 | <50 | <50 | <50 | –
Cc1nc2nccnc2cc1NC(=O)CN(C)C | <50 | <50 | <50 | <50 | <50 | <50 | <50 | <50 | –
Cc1nc2nc(Sc3ccccc3)cnc2cc1NC(=O)CN(C)C | <50 | <50 | <50 | <50 | <50 | <50 | <50 | <50 | –
COc1cc(C(=O)Nc2cc3nccnc3nc2C)cc(OC)c1OC | <50 | <50 | <50 | <50 | <50 | <50 | <50 | <50 | –
Cc1ccc(C(=O)Nc2cc3nccnc3nc2C)cc1 | <50 | <50 | <50 | <50 | <50 | <50 | <50 | <50 | –
Cc1nc2nc(Sc3ccccc3)cnc2cc1NC(=O)c1cccc(C(F)(F)F)c1 | <50 | <50 | <50 | <50 | <50 | <50 | <50 | <50 | –
Cc1nc2nc(Oc3ccccc3)cnc2cc1NC(=O)Nc1ccccc1 | >50 | >50 | >50 | >50 | >50 | >50 | >50 | >50 | IC50 [9]: 5.3 µM; inhibition [10]: inactive; inhibition [11]: inactive; inhibition [12]: inactive; IC50 [13]: 9.4 µM; inhibition [14]: inactive; inhibition [15]: inactive; IC50 [16]: 7 µM; inhibition [17]: inactive; inhibition [18]: inactive; inhibition [19]: inactive; IC50 [20]: 5.1 µM; inhibition [21]: inactive; inhibition [22]: inactive; inhibition [23]: inactive; IC50 [24]: 7.2 µM; inhibition [25]: inactive; inhibition [26]: inactive
Cc1nc2nc(Sc3ccccc3)cnc2cc1NC(=O)c1ccc([N+](=O)[O-])cc1 | <50 | <50 | <50 | <50 | <50 | <50 | <50 | <50 | –
Cc1nc2nccnc2cc1NC(=O)c1ccccc1 | <50 | <50 | <50 | <50 | <50 | <50 | <50 | <50 | –
Cc1nc2nc(Sc3ccccc3)cnc2cc1NC(=O)c1ccccc1C(F)(F)F | <50 | <50 | <50 | <50 | <50 | <50 | <50 | <50 | –
Cc1nc2nc(Sc3ccccc3)cnc2cc1NC(=O)CN1CCN(C)CC1 | <50 | <50 | <50 | <50 | <50 | <50 | <50 | <50 | –
Cc1nc2nc(Sc3ccccc3)cnc2cc1NC(=O)Nc1ccc(F)c(Cl)c1 | <50 | <50 | <50 | <50 | <50 | <50 | <50 | <50 | –
Cc1nc2nccnc2cc1NC(=O)c1cccc(C(F)(F)F)c1 | <50 | <50 | <50 | <50 | <50 | <50 | <50 | <50 | –
Cc1nc2nc(Sc3ccccc3)cnc2cc1NC(=O)Nc1ccc(F)c([N+](=O)[O-])c1 | <50 | <50 | <50 | <50 | <50 | <50 | <50 | <50 | –
Cc1nc2nc(Sc3ccccc3)cnc2cc1N | <50 | <50 | <50 | <50 | <50 | <50 | <50 | <50 | –
Cc1nc2nccnc2cc1NC(=O)CN1CCN(C)CC1 | <50 | <50 | <50 | <50 | <50 | <50 | <50 | <50 | –
CSc1ccc(NC(=O)Nc2cc3ncc(Sc4ccccc4)nc3nc2C)cc1 | <50 | <50 | <50 | <50 | <50 | <50 | <50 | <50 | –
COc1cc(C(=O)Nc2cc3ncc(Sc4ccccc4)nc3nc2C)cc(OC)c1OC | <50 | <50 | <50 | <50 | <50 | <50 | <50 | <50 | –
Cc1nc2nccnc2cc1NC(=O)c1ccc([N+](=O)[O-])cc1 | <50 | <50 | <50 | <50 | <50 | <50 | <50 | <50 | –
Cc1ccc(C(=O)Nc2cc3ncc(Sc4ccccc4)nc3nc2C)cc1 | <50 | <50 | <50 | <50 | <50 | <50 | <50 | <50 | –
